ChEMBL document CHEMBL3797079, “Synergistic reduction of HIV-1 infectivity by 5-azacytidine and inhibitors of ribonucleotide reductase” (Bioorg Med Chem, 2016)
Calls of active or inactive are those of the source. No cut-off for these calls is given here.

Columns and labels:
[1] = tested on: U373-MAGI; experiment: Effect on dRGU-TP level in human U373-MAGI cells at 50 uM preincubated for 2 hrs followed by 5-aza-dC addition measured after 4 hrs by LC-MS/MS analysis; format: functional, cell-based
[2] = tested on: U373-MAGI; experiment: Reduction in dTTP level in human U373-MAGI cells at 200 uM after 6 hrs by LC-MS/MS analysis; format: functional, cell-based
[3] = tested on: U373-MAGI; experiment: Reduction in dCTP level in human U373-MAGI cells at 200 uM after 6 hrs by LC-MS/MS analysis; format: functional, cell-based
[4] = tested on: Human immunodeficiency virus 1; experiment: Antiviral activity against VSV-G pseudotyped HIV-1 NL4-3 infected in human U373-MAGI cells assessed as reduction in viral infectivity preincubated for 2 to 8 hrs followed by viral infection measured at 72 hrs post infection by flow cytometric analysis; format: functional, organism-based
[5] = tested on: U373-MAGI; experiment: Reduction in 5-aza-dCTP level in human U373-MAGI cells at 200 uM preincubated for 2 hrs followed by 5-aza-C addition measured after 4 hrs by LC-MS/MS analysis; format: functional, cell-based
[6] = tested on: Human immunodeficiency virus 1; experiment: Antiviral activity against VSV-G pseudotyped HIV-1 NL4-3 infected in human U373-MAGI cells assessed as Env mutation at 50 uM incubated for 4 hrs prior to infection measured at 72 hrs post infection by illumina sequencing method (reference value: 21.4%); format: functional
[7] = tested on: U373-MAGI; experiment: Increase in 5-aza-dCTP/dCTP ratio in human U373-MAGI cells at 200 uM preincubated for 2 hrs followed by 5-aza-dC addition measured after 4 hrs by LC-MS/MS analysis relative to 5-aza-dC; format: functional, cell-based
[8] = tested on: Human immunodeficiency virus 1; experiment: Antiviral activity against VSV-G pseudotyped HIV-1 NL4-3 infected in human U373-MAGI cells assessed as Gag mutation at 50 uM incubated for 4 hrs prior to infection measured at 72 hrs post infection by illumina sequencing method (reference value: 18.4%); format: functional
[9] = tested on: U373-MAGI; experiment: Reduction in dTTP level in human U373-MAGI cells at 50 uM after 6 hrs by LC-MS/MS analysis; format: functional, cell-based
[10] = tested on: Human immunodeficiency virus 1; experiment: (§1) Potentiation of 5-Aza-C-induced antiviral activity against VSV-G pseudotyped HIV-1 NL4-3 infected in human U373-MAGI cells assessed as increase in total mutation frequency at 50 uM incubated for 4 hrs preinfection followed by 5-Aza-C addition for 2 hrs preinfection and subsequent viral infection measured at 72 hrs post infection by illumina sequencing method relative to control; format: functional, organism-based
[11] = tested on: Human immunodeficiency virus 1; experiment: as §1, with “Env” for “increase in total”, “mutation” for “mutation frequency”, “(reference value: 21.4%)” for “relative to control”; format: functional
[12] = tested on: Human immunodeficiency virus 1; experiment: as §1, with “Vif” for “increase in total”, “mutation” for “mutation frequency”, “(reference value: 19.2%)” for “relative to control”; format: functional
[13] = tested on: U373-MAGI; experiment: Reduction in dCTP level in human U373-MAGI cells at 50 uM preincubated for 2 hrs followed by 5-aza-C addition measured after 4 hrs by LC-MS/MS analysis; format: functional, cell-based
[14] = tested on: Human immunodeficiency virus 1; experiment: as §1, with “[…]” for “5-Aza-C-induced”, “Env” for “increase in total”, “mutation” for “mutation frequency”, “(reference value: 21.4%)” for “relative to control”; format: functional
[15] = Cytotoxicity against human U373-MAGI cells at 50 uM measured at 72 hrs by Celltiter-Glo luminescent cell viability assay; format: cell-based
[16] = tested on: Human immunodeficiency virus 1; experiment: Potentiation of 5-Aza-dC-induced antiviral activity against VSV-G pseudotyped HIV-1 NL4-3 infected in human U373-MAGI cells assessed as reduction in viral infectivity at 25 uM preincubated for 2 hrs followed by 5-Aza-dC addition for 2 hrs and subsequent viral infection measured at 72 hrs post infection by flow cytometric analysis; format: functional, organism-based
[17] = tested on: U373-MAGI; experiment: Reduction in dCTP level in human U373-MAGI cells at 200 uM preincubated for 2 hrs followed by 5-aza-C addition measured after 4 hrs by LC-MS/MS analysis relative to 5-aza-C; format: functional, cell-based
[18] = tested on: Human immunodeficiency virus 1; experiment: Antiviral activity against VSV-G pseudotyped HIV-1 NL4-3 infected in human U373-MAGI cells assessed as Vif mutation at 50 uM incubated for 4 hrs prior to infection measured at 72 hrs post infection by illumina sequencing method (reference value: 19.2%); format: functional
[19] = tested on: Human immunodeficiency virus 1; experiment: Potentiation of 5-Aza-C-induced antiviral activity against VSV-G pseudotyped HIV-1 NL4-3 infected in human U373-MAGI cells assessed as decrease in 5-Aza-C EC50 at 50 uM preincubated for 2 hrs followed by 5-Aza-C addition for 2 hrs and subsequent viral infection measured at 72 hrs post infection by flow cytometric analysis relative to control; format: functional
[20] = tested on: U373-MAGI; experiment: Increase in 5-aza-dCTP/dCTP ratio in human U373-MAGI cells at 50 uM preincubated for 2 hrs followed by 5-aza-C addition measured after 4 hrs by LC-MS/MS analysis relative to 5-aza-C; format: functional, cell-based
[21] = tested on: Human immunodeficiency virus 1; experiment: Antiviral activity against VSV-G pseudotyped HIV-1 NL4-3 infected in human U373-MAGI cells assessed as increase in frequency of […] transversion at 50 uM incubated for 4 hrs prior to infection measured at 72 hrs post infection by illumina sequencing method relative to control; format: functional
[22] = tested on: Human immunodeficiency virus 1; experiment: as §1, with “Gag” for “increase in total”, “mutation” for “mutation frequency”, “(reference value: 18.4%)” for “relative to control”; format: functional
[23] = tested on: Human immunodeficiency virus 1; experiment: Antiviral activity against VSV-G pseudotyped HIV-1 NL4-3 infected in human U373-MAGI cells assessed as reduction in viral infectivity at 50 uM incubated for 4 hrs prior to viral infection measured at 72 hrs post infection by flow cytometric analysis; format: functional, organism-based
[24] = tested on: Human immunodeficiency virus 1; experiment: as §1, with “5-Aza-dC-induced” for “5-Aza-C-induced”; format: functional, organism-based
[25] = tested on: Human immunodeficiency virus 1; experiment: Antiviral activity against VSV-G pseudotyped HIV-1 NL4-3 infected in human U373-MAGI cells assessed as Pol mutation at 50 uM incubated for 4 hrs prior to infection measured at 72 hrs post infection by illumina sequencing method (reference value: 18.5%); format: functional
[26] = tested on: U373-MAGI; experiment: Increase in 5-aza-dCTP/dCTP ratio in human U373-MAGI cells at 50 uM preincubated for 2 hrs followed by 5-aza-dC addition measured after 4 hrs by LC-MS/MS analysis relative to 5-aza-dC; format: functional, cell-based
[27] = tested on: Human immunodeficiency virus 1; experiment: as §1, with “Pol” for “increase in total”, “mutation” for “mutation frequency”, “(reference value: 18.5%)” for “relative to control”; format: functional
[28] = tested on: U373-MAGI; experiment: Reduction in dGTP level in human U373-MAGI cells at 200 uM after 6 hrs by LC-MS/MS analysis; format: functional, cell-based
[29] = tested on: U373-MAGI; experiment: Reduction in dCTP level in human U373-MAGI cells at 50 uM after 6 hrs by LC-MS/MS analysis; format: functional, cell-based
[30] = tested on: Human immunodeficiency virus 1; experiment: Antiviral activity against VSV-G pseudotyped HIV-1 NL4-3 infected in human U373-MAGI cells assessed as increase in frequency of G to C transversion at 50 uM incubated for 4 hrs prior to infection measured at 72 hrs post infection by illumina sequencing method relative to control; format: functional
[31] = tested on: Human immunodeficiency virus 1; experiment: Potentiation of 5-Aza-C-induced antiviral activity against VSV-G pseudotyped HIV-1 NL4-3 infected in human U373-MAGI cells assessed as reduction in gag level at 50 uM after 2 to 72 hrs by qPCR method; format: functional, organism-based

SMILES: Oc1ccc(/C=C/c2cc(O)cc(O)c2)cc1 [RESVERATROL]
- Activity [1]: inactive
- Activity [2]: Active
- Activity [3]: Active
- Activity [4]: Active
- Activity [5]: Active
- Activity [6]: 22.5%
- Activity [7]: Active
- Activity [8]: 16.6%
- Activity [9]: inactive
- Activity [10]: inactive
- Activity [11]: 22.8%
- Activity [12]: 22.6%
- Activity [13]: Active
- Activity [14]: 20.1%
- Activity [15]: Non-toxic
- Activity [16]: Active
- Activity [17]: Active
- Activity [18]: 23.4%
- fold change (FC) [19]: 2.5
- Activity [20]: Active
- fold change (FC) [21]: 2
- Activity [22]: 15.5%
- Activity [23]: Active
- Activity [24]: inactive
- Activity [25]: 19%
- Activity [26]: Active
- Activity [27]: 21.9%
- Activity [28]: Active
- Activity [29]: inactive
- fold change (FC) [30]: 2
- Activity [31]: Active
